Source: patent US20230210831A1, “CHRONIC KIDNEY DISEASE TREATMENT OR PREVENTION METHOD” (Japan Tobacco Inc., priority 2019, published 2023)

Assays:
Type in all cases: cell-based
[1] = test system: Salmonella typhimurium TA98; test: Ames test (reverse mutation test), TA98
Description: (§1) The solvent used herein was dimethyl sulfoxide (DMSO, 100 µL/plate).
(§2) The mixtures were preincubated at 37° C. for 20 minutes while shaking. […] Two plates per treatment were used.

[2] = test system: Salmonella typhimurium TA1535; test: Ames test (reverse mutation test), TA1535
Description: as §1, §2

[3] = test system: Salmonella typhimurium TA1537; test: Ames test (reverse mutation test), TA1537
Description: as §1, §2

[4] = test system: Salmonella typhimurium TA100; test: Ames test (reverse mutation test), TA100
Description: as §1, §2

Escherichia coli WP2uvrA = test: Ames test (reverse mutation test), WP2uvrA
Description: as §1, §2

SMILES: Nc1cc(-c2cccc(OCC(F)(F)F)c2)n(-c2ccc(F)cc2)n1 [Metabolite E]
- Number of revertant colonies TA98 ([1]; S9 Mix +, dose 2.3 µg/plate): 589
- Number of revertant colonies TA98 ([1]; S9 Mix +, dose 6.9 µg/plate): 1310
- Number of revertant colonies TA98 ([1]; S9 Mix +, dose 21 µg/plate): 1001
- Number of revertant colonies TA98 ([1]; S9 Mix +, dose 62 µg/plate): 490
- Number of revertant colonies TA98 ([1]; S9 Mix +, dose 185 µg/plate): 268
- Number of revertant colonies TA98 ([1]; S9 Mix +, dose 556 µg/plate): 77
- Number of revertant colonies TA98 ([1]; S9 Mix +, dose 1667 µg/plate): 15
- Number of revertant colonies TA98 ([1]; S9 Mix +, dose 5000 µg/plate): 12
- Number of revertant colonies TA98 ([1]; S9 Mix -, dose 2.3 µg/plate): 26
- Number of revertant colonies TA98 ([1]; S9 Mix -, dose 6.9 µg/plate): 27
- Number of revertant colonies TA98 ([1]; S9 Mix -, dose 21 µg/plate): 28
- Number of revertant colonies TA98 ([1]; S9 Mix -, dose 62 µg/plate): 32
- Number of revertant colonies TA98 ([1]; S9 Mix -, dose 185 µg/plate): 17
- Number of revertant colonies TA98 ([1]; S9 Mix -, dose 556 µg/plate): 12
- Number of revertant colonies TA98 ([1]; S9 Mix -, dose 1667 µg/plate): 6
- Number of revertant colonies TA98 ([1]; S9 Mix -, dose 5000 µg/plate): 2
- potential to induce reverse mutations ([1]; TA98 with S9 mix): showed potential to induce reverse mutations
- Number of revertant colonies TA1535 ([2]; S9 Mix +, dose 1667 µg/plate): 0
- Number of revertant colonies TA1535 ([2]; S9 Mix -, dose 556 µg/plate): 0
- Number of revertant colonies TA1535 ([2]; S9 Mix -, dose 1667 µg/plate): 0
- potential to induce reverse mutations ([2]; TA1535 with S9 mix): showed potential to induce reverse mutations
- Number of revertant colonies TA1537 ([3]; S9 Mix +, dose 2.3 µg/plate): 65
- Number of revertant colonies TA1537 ([3]; S9 Mix +, dose 6.9 µg/plate): 227
- Number of revertant colonies TA1537 ([3]; S9 Mix +, dose 21 µg/plate): 180
- Number of revertant colonies TA1537 ([3]; S9 Mix +, dose 62 µg/plate): 102
- Number of revertant colonies TA1537 ([3]; S9 Mix +, dose 185 µg/plate): 85
- Number of revertant colonies TA1537 ([3]; S9 Mix +, dose 556 µg/plate): 0
- Number of revertant colonies TA1537 ([3]; S9 Mix +, dose 1667 µg/plate): 0
- Number of revertant colonies TA1537 ([3]; S9 Mix +, dose 5000 µg/plate): 0
- Number of revertant colonies TA1537 ([3]; S9 Mix -, dose 2.3 µg/plate): 17
- Number of revertant colonies TA1537 ([3]; S9 Mix -, dose 6.9 µg/plate): 20
- Number of revertant colonies TA1537 ([3]; S9 Mix -, dose 21 µg/plate): 16
- Number of revertant colonies TA1537 ([3]; S9 Mix -, dose 62 µg/plate): 11
- Number of revertant colonies TA1537 ([3]; S9 Mix -, dose 185 µg/plate): 3
- Number of revertant colonies TA1537 ([3]; S9 Mix -, dose 556 µg/plate): 0
- Number of revertant colonies TA1537 ([3]; S9 Mix -, dose 1667 µg/plate): 0
- Number of revertant colonies TA1537 ([3]; S9 Mix -, dose 5000 µg/plate): 0
- potential to induce reverse mutations ([3]; TA1537 with S9 mix): showed potential to induce reverse mutations
- potential to induce reverse mutations ([3]; TA1537 without S9 mix): showed potential to induce reverse mutations
- Number of revertant colonies TA100 ([4]; S9 Mix +, dose 2.3 µg/plate): 1338
- Number of revertant colonies TA100 ([4]; S9 Mix +, dose 6.9 µg/plate): 2032
- Number of revertant colonies TA100 ([4]; S9 Mix +, dose 21 µg/plate): 2016
- Number of revertant colonies TA100 ([4]; S9 Mix +, dose 62 µg/plate): 2320
- Number of revertant colonies TA100 ([4]; S9 Mix +, dose 185 µg/plate): 1799
- Number of revertant colonies TA100 ([4]; S9 Mix +, dose 556 µg/plate): 1082
- Number of revertant colonies TA100 ([4]; S9 Mix +, dose 1667 µg/plate): 182
- Number of revertant colonies TA100 ([4]; S9 Mix +, dose 5000 µg/plate): 157
- Number of revertant colonies TA100 ([4]; S9 Mix -, dose 2.3 µg/plate): 110
- Number of revertant colonies TA100 ([4]; S9 Mix -, dose 6.9 µg/plate): 96
- Number of revertant colonies TA100 ([4]; S9 Mix -, dose 21 µg/plate): 96
- Number of revertant colonies TA100 ([4]; S9 Mix -, dose 62 µg/plate): 101
- Number of revertant colonies TA100 ([4]; S9 Mix -, dose 185 µg/plate): 75
- Number of revertant colonies TA100 ([4]; S9 Mix -, dose 556 µg/plate): 38
- Number of revertant colonies TA100 ([4]; S9 Mix -, dose 1667 µg/plate): 27
- Number of revertant colonies TA100 ([4]; S9 Mix -, dose 5000 µg/plate): 0
- potential to induce reverse mutations ([4]; TA100 with S9 mix): showed potential to induce reverse mutations
- Number of revertant colonies WP2uvrA (Escherichia coli WP2uvrA; S9 Mix +, dose 2.3 µg/plate): 26
- Number of revertant colonies WP2uvrA (Escherichia coli WP2uvrA; S9 Mix +, dose 6.9 µg/plate): 32
- Number of revertant colonies WP2uvrA (Escherichia coli WP2uvrA; S9 Mix +, dose 21 µg/plate): 24
- Number of revertant colonies WP2uvrA (Escherichia coli WP2uvrA; S9 Mix +, dose 62 µg/plate): 30
- Number of revertant colonies WP2uvrA (Escherichia coli WP2uvrA; S9 Mix +, dose 185 µg/plate): 18
- Number of revertant colonies WP2uvrA (Escherichia coli WP2uvrA; S9 Mix +, dose 556 µg/plate): 19
- Number of revertant colonies WP2uvrA (Escherichia coli WP2uvrA; S9 Mix +, dose 1667 µg/plate): 13
- Number of revertant colonies WP2uvrA (Escherichia coli WP2uvrA; S9 Mix +, dose 5000 µg/plate): 12
- Number of revertant colonies WP2uvrA (Escherichia coli WP2uvrA; S9 Mix -, dose 2.3 µg/plate): 20
- Number of revertant colonies WP2uvrA (Escherichia coli WP2uvrA; S9 Mix -, dose 6.9 µg/plate): 26
- Number of revertant colonies WP2uvrA (Escherichia coli WP2uvrA; S9 Mix -, dose 21 µg/plate): 24
- Number of revertant colonies WP2uvrA (Escherichia coli WP2uvrA; S9 Mix -, dose 62 µg/plate): 27
- Number of revertant colonies WP2uvrA (Escherichia coli WP2uvrA; S9 Mix -, dose 185 µg/plate): 22
- Number of revertant colonies WP2uvrA (Escherichia coli WP2uvrA; S9 Mix -, dose 556 µg/plate): 10
- Number of revertant colonies WP2uvrA (Escherichia coli WP2uvrA; S9 Mix -, dose 1667 µg/plate): 15
- Number of revertant colonies WP2uvrA (Escherichia coli WP2uvrA; S9 Mix -, dose 5000 µg/plate): 7
